Measurements taken from US7723075B2, “Methods of screening for TRPM5 modulators” (The Queens's Medical Center, priority 2003, dated 2010).

Experiments:
TRPM5 [1] = target: T1, TRPM5 (Homo sapiens, UniProt Q9NZQ8); assay: Combined patch-clamp and fura-2 recordings of TRPM5 currents after Ca2+ release, [Ca2+]i not buffered; type: cell-based
T1 construct: Human TRPM5 cDNA containing the complete ORF of the long splice version; expressed in transfected cells
T1 sequence (Q9NZQ8 1-1165): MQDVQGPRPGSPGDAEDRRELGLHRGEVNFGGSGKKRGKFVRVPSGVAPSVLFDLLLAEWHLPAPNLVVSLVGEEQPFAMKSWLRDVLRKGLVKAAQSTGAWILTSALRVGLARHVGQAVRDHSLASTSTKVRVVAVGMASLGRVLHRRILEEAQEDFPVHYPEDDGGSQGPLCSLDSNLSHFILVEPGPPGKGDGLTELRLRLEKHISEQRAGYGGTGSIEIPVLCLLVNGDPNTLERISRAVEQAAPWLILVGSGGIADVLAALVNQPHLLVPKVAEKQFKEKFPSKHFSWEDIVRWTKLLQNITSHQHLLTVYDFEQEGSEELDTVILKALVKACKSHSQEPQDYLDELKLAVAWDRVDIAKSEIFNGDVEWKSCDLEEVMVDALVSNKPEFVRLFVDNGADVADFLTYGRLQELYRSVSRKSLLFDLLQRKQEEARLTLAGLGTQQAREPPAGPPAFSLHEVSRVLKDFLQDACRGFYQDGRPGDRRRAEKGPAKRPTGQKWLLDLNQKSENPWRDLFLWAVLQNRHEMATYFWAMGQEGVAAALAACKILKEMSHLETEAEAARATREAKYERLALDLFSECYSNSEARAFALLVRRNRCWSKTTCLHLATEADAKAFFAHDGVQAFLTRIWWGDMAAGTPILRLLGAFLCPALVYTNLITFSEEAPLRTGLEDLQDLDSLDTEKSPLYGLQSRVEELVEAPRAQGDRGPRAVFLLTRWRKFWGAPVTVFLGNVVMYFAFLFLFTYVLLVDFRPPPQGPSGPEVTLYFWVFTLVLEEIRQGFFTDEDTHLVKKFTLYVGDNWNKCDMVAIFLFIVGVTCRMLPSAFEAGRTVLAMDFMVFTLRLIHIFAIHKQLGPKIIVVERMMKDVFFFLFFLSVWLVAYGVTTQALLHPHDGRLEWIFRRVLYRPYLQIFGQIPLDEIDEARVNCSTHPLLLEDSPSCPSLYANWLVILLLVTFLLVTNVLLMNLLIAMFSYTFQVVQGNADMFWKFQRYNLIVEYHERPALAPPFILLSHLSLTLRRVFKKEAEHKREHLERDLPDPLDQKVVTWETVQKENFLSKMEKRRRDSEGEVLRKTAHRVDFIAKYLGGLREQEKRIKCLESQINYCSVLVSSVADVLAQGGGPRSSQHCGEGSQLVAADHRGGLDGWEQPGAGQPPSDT
From the text: (§1) Cells grown on glass coverslips were transferred to the recording chamber and kept in a standard modified Ringer's solution of the following composition (in mM): NaCl 140, KCl 2.8, CaC12 1, MgC12 2, glucose 10, Hepes.NaOH 10, pH 7.2, with osmolarity typically ranging from 298-308 mOsm. Intracellular pipette-filling solutions contained (in MM): K-glutamate 120, NaCl 8, MgC12 1, K-BAPTA 10, HEPES.CsOH, pH 7.2 adjusted with KOH. In order to adjust free [Ca^2+]i, to the desired concentration appropriate amounts of CaC12 were added as calculated with WebMaxC v2.1 (available through Stanford University). In the case of fura-2 measurements intracellular K-BAPTA was replaced by 200 μM fura-2. Fura-2 is a calcium indicator (Handbook of Fluorescent Probes and Research Chemicals, 9th ed. Molecular Probes). […]
(§2) The cytosolic calcium concentration was monitored at a rate of 5 Hz with a photomultiplier-based system using a monochromatic light source tuned to excite fura-2 fluorescence at 360 and 390 nm for 20 ms each (TILL Photonics, Munich, Germany). Emission was detected at 450-550 run with a photomultiplier, whose analog signals were sampled and processed by X-Chart software (HEKA, Lambrecht, Germany). Fluorescence ratios were translated into free intracellular calcium concentration based on calibration parameters derived from patch-clamp experiments with calibrated calcium concentrations. […]

TRPM5 [2] = target: T1, TRPM5; assay: Whole-cell patch-clamp of TRPM5 currents in HEK-293 cells stably expressing TRPM5, [Ca2+]i buffered in pipette; type: cell-based; details: for Hill coefficient, inhibition of TRPM5: fit to inhibitory phase
From the text: Cells grown on glass coverslips were transferred to the recording chamber and kept in a standard modified Ringer's solution of the following composition (in mM): NaCl 140, KCl 2.8, CaC12 1, MgC12 2, glucose 10, Hepes.NaOH 10, pH 7.2, with osmolarity typically ranging from 298-308 mOsm. Intracellular pipette-filling solutions contained (in MM): K-glutamate 120, NaCl 8, MgC12 1, K-BAPTA 10, HEPES.CsOH, pH 7.2 adjusted with KOH. In order to adjust free [Ca^2+]i, to the desired concentration appropriate amounts of CaC12 were added as calculated with WebMaxC v2.1 (available through Stanford University). In the case of fura-2 measurements intracellular K-BAPTA was replaced by 200 μM fura-2. Fura-2 is a calcium indicator (Handbook of Fluorescent Probes and Research Chemicals, 9th ed. Molecular Probes). Solution changes were performed by pressure ejection from a wide-tipped pipette. Thrombin (NaCl-based buffer) was purchased from Sigma.
Cells expressing TRPM5 were prepared as in Example 1. The cells were perfused with an internal solution in which the free Ca^2+ concentration was buffered to 500 nM with an appropriate mixture of BAPTA and CaC12. […] The activation kinetics of TRPM5 currents under these experimental conditions is characterized by a half-time to peak of −3 s, with the peak current itself at −10 s. The current inactivates similarly rapidly to basal levels with a half-time of —13 s.
(§3) Patch-clamp experiments were performed in the tight-seal whole-cell configuration at 21-25° C. High-resolution current recordings were acquired by a computer-based patch-clamp amplifier system (EPC-9, HEKA, Lambrecht, Germany). Patch pipettes had resistances between 2-4 MS2 after filling with the standard intracellular solution. Immediately following establishment of the whole-cell configuration, voltage ramps of 50 ms duration spanning the voltage range of −100 to +100 mV were delivered from a holding potential of 0 mV at a rate of 0.5 Hz over a period of 300 to 600 seconds. All voltages were corrected for a liquid junction potential of 10 mV between external and internal solutions when using glutamate as intracellular anion. Currents were filtered at 2.9 kHz and digitized at […] intervals. Capacitive currents and series resistance were determined and corrected before each voltage ramp using the automatic capacitance compensation of the EPC-9. The low-resolution temporal development of membrane currents was assessed by extracting the current amplitude at −80 and +80 mV from individual ramp current records. Where applicable, statistical errors of averaged data are given as means±S.E.M. with n determinations and statistical significance was assessed by Student's t-test. For single channel measurements inside-out patches were pulled into a modified standard external solution that contained no Ca^2+ and had 1 mM Na-EDTA. To record single channels a ramp protocol of 4.5 s from −100 mV to +100 mV and digitized at […] was given with no wait time in between ramps. Ramps that had no channel activity during Ca^2+ application were used for leak correction and subtracted form all ramps acquired. Data collection was at 2.9 kHz filter setting and digitally filtered at 50 Hz for display purposes.

TRPM4 = TRPM4 (Homo sapiens, UniProt Q8TD43); assay: Dose-dependence of TRPM4 currents evoked by intracellular [Ca2+]i; type: cell-based
[3] = system: endogenous TRPM5-like currents in INS-1 cells; assay: Whole-cell currents in INS-1 beta cells perfused with defined [Ca2+]i; type: cell-based, rat
Method: as §3
TRPM5 is found in another beta cell line, INS-1 (FIG. 5B). The INS-1 line was used to assess the electrophysiological features of TRPM5 in a native cellular context. Since the pancreatic beta-cell line INS-1 expressed TRPM5, the native TRPM5 currents in these cells was studied using the same experimental protocols that activated TRPM5 in the heterologous HEK-293 expression system (Examples 1-3). FIG. 5C illustrates that perfusing INS-1 cells with an intracellular solution that contained elevated levels of Ca^2+ (800 nM) induced a transient current, whose current-voltage relationship (FIG. 5D) was outwardly rectifying and closely resembled the current-voltage characteristics obtained for TRPM5 in the transfected HEK-293 cells. […]

TRPM5 single channels = target: T2, TRPM5 single channels (Homo sapiens, UniProt Q9NZQ8); assay: Single-channel recordings in inside-out patches from HEK-293 cells stably expressing TRPM5; type: biochemical; details: cytosolic side exposed to 300 nM Ca2+, n=5
T2 construct: Human TRPM5 cDNA containing the complete ORF of the long splice version; expressed in transfected cells
T2 sequence (Q9NZQ8 1-1165): T1 sequence (Q9NZQ8 1-1165)
From the text: FIG. 4A depicts studies in which the inside-out patches were pulled from HEK-293 cells stably expressing TRPM5 channels. To record single channels a ramp protocol of 4.5 s from −100 mV to +100 mV was given with no wait time in between ramps. Ramps that had no channel activity during Ca^2+ application ere used for leak correction. Data were acquired at 2.9 kHz filter setting and digitally filtered at 50 Hz for display purposes. […] The last panel is an example 1 s after stop of application and removal of Ca^2+. This patch had at least 7 channels. […] Records are representative of all 5 patches recorded this way. […]
Patch-clamp experiments were performed in the tight-seal whole-cell configuration at 21-25° C. […] Capacitive currents and series resistance were determined and corrected before each voltage ramp using the automatic capacitance compensation of the EPC-9. The low-resolution temporal development of membrane currents was assessed by extracting the current amplitude at −80 and +80 mV from individual ramp current records. Where applicable, statistical errors of averaged data are given as means±S.E.M. with n determinations and statistical significance was assessed by Student's t-test. […]
The single-channel properties of TRPM5 were analyzed in cell-free excised membrane patches in the inside-out configuration of the patch-clamp technique. […]

HEK-293 cells = assay: fura-2 measurement of [Ca2+]i in TRPM5-expressing HEK-293 cells; type: cell-based, human; details: thrombin 20 U/ml, n=5
From the text: as §1, §2

Chain of TRPM4 (Q8TD43 whole entry, the tested form may be a part): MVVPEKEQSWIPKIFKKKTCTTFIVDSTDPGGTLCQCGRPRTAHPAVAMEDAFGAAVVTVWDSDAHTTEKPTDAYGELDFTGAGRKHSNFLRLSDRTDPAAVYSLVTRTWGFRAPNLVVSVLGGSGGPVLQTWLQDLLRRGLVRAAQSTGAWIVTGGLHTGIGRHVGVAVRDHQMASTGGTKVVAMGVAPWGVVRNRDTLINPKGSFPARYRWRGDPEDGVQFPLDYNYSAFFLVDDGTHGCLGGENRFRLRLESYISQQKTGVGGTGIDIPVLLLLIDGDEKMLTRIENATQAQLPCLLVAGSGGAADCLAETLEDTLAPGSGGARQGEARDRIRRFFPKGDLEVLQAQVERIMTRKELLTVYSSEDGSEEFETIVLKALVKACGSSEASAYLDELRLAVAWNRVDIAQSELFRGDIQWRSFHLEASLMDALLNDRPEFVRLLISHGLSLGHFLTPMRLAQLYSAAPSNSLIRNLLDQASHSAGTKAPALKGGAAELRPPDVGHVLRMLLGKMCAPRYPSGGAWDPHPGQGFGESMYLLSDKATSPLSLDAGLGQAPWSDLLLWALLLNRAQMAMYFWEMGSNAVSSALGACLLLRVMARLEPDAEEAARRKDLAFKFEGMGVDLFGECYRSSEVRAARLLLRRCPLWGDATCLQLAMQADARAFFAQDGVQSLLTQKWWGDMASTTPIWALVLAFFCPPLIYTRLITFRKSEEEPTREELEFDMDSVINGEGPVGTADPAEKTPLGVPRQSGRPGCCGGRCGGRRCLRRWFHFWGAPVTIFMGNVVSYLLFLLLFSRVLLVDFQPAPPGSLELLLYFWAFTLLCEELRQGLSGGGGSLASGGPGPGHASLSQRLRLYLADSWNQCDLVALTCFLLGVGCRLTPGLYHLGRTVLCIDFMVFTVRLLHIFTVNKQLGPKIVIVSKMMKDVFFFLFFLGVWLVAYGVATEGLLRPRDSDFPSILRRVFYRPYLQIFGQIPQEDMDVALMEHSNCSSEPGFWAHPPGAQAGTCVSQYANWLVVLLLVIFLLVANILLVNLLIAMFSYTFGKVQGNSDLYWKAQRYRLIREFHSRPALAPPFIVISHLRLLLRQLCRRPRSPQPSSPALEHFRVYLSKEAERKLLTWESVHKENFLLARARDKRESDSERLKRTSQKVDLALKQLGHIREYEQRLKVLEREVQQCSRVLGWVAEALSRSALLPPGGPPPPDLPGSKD

Molecule: O=C([O-])CN(CC(=O)[O-])c1ccccc1OCCOc1ccccc1N(CC(=O)[O-])CC(=O)[O-].[K+].[K+].[K+].[K+] [BAPTA]
- effect on TRPM5 activation by thrombin (TRPM5 [1]; 10 mM BAPTA in the pipette solution, n=6, data not shown): consistently suppressed TRPM5 activation

Molecule: [Ca+2] [[Ca^2+]i]
- average peak amplitude of TRPM5 inward currents (TRPM5 [2]; at −80 mV, [Ca2+]i of 1 μM, n=5): −440 pA
- Hill coefficient, inhibition of TRPM5 (TRPM5 [2]): −6
- Hill coefficient, inhibition of TRPM5 (TRPM5 [2]; listed as [Ca2+]i): 6
- Hill coefficient, activation of TRPM5 (TRPM5 [2]; fit to rising phase): 4
- EC50 (TRPM5 [2]; whole-cell, HEK-293 expressing TRPM5, n=5-20, read-out: EC50 for activation of TRPM5 currents (rising phase)): 850 nM
- IC50 (TRPM5 [2]; whole-cell, HEK-293 expressing TRPM5, n=5-20, read-out: IC50 of the inhibitory phase of TRPM5 currents): 1100 nM
- EC50 (TRPM4; data re-calculated by WebmaxC): 885 nM
- Hill coefficient, TRPM4 currents (TRPM4; data re-calculated by WebmaxC): 3.6
- inhibition of TRPM4 activity at high [Ca2+]i (TRPM4; levels up to 1.3 μM, Ref. 9 and data not shown): without signs of inhibition
- activation of endogenous TRPM5-like currents ([3]; 100 nM [Ca2+]i, n=3): neither 100 nM (n=3) nor 300 nM (n=3) activated any currents
- activation of endogenous TRPM5-like currents ([3]; 300 nM [Ca2+]i, n=3): neither 100 nM (n=3) nor 300 nM (n=3) activated any currents
- activation of endogenous TRPM5-like currents ([3]; 500 nM [Ca2+]i, n=3): a distinctive, transient TRPM5-like current was activated
- activation of endogenous TRPM5-like currents ([3]; 800 nM [Ca2+]i, n=8): a distinctive, transient TRPM5-like current was activated
- TRPM5 single-channel activity in inside-out patch (TRPM5 single channels): activity of multiple channels was observed

Molecule: Thrombin
- TRPM5 currents at +80 and −80 mV on thrombin stimulation (TRPM5 [1]; thrombin 20 U/ml, n=5): transient increase in inward and outward currents
- [Ca2+]i signal on thrombin stimulation (HEK-293 cells): large Ca^2+-release transient
